Tests used:
[1] = tested on: MDA-MB 231 human breast adenocarcinoma cells; assay: Cytotoxicity (MTT growth inhibition) in MDA-MB 231; assay type: cell-based; conditions: 1 h incubation, wash, then 6 days at 37 °C without drug, 128 pM to 10 μM, performed twice in triplicate
Protocol: (§1) Growth inhibition was assessed by 3-(4,5-dimethylthiazol-2-yl)-2,5-diphenyltetrazolium bromide (MTT). […] The experiment was performed twice in triplicate.
(§2) EC50 values were calculated by non-linear regression analysis using Graph Pad Prism 5.03 software.

[2] = tested on: SKOV-3 human ovary adenocarcinoma cells; assay: Cytotoxicity (MTT growth inhibition) in SKOV-3; assay type: cell-based; conditions: SK-OV-3, 1 h incubation, wash, then 6 days at 37 °C without drug, 128 pM to 10 μM, performed twice in triplicate
Protocol: as §1, §2

[3] = tested on: orthotopic MDA-MB 231-luc2 tumors; assay: Tumor growth in orthotopic MDA-MB 231-luc2 mouse model; assay type: in vivo, athymic nude mice; conditions: 2.86 μmol/Kg i.v. every 4 days
Protocol: MDA-MB 231-luc2 cells were injected orthotopically in the mammary fat pads of female athymic nude mice. […] Tumor growth was monitored by measuring volumes every 4 days with a caliber rule and by imaging luciferase reporter expression in tumor cells with a Photon Imager system at 8-day intervals.
Orthotopic breast tumors were established by injecting 1 × 10^6 MDA-MB 231-luc2 cells into the fourth mammary fat pad of athymic nude mice (Harlan Laboratories). Tumor growth was monitored every four days by measuring two perpendicular diameters with caliber. Tumor volume (V) was calculated by the following equation: V = (a^2 × b)/2, where “a” is the width of the tumor (small diameter), and b the length (large diameter), both in millimeters[22].
Treatments were started when the tumors reached at least 80 mm^3 in volume.
Tumor growth was also monitored by imaging luciferase reporter expression in tumor cells. To track MDA-MB 231-luc2 cells, bioluminescent optical imaging was performed using a Photon Imager system (Biospace Lab, Paris, France) including a cooled charge-coupled device (CCD) camera. Prior to imaging, mice were anaesthetized by intraperitoneal (i.p.) injection of 275 mg/kg Avertin. […] Bioluminescence was quantified by automatic measurement. ROI optical images were analyzed with M3 Vision software (Biospace Lab, Paris, France).

For `CC(=O)O[C@H]1C(=O)[C@@]2(C)[C@H]([C@H](OC(=O)c3ccccc3)[C@]3(O)C[C@H](OC(=O)[C@H](O)[C@@H](NC(=O)c4ccccc4)c4ccccc4)C(C)=C1C3(C)C)[C@]1(OC(C)=O)CO[C@@H]1C[C@@H]2O` [PTX, Paclitaxel], the EC50 [1] was 62 nM, the EC50 [2] was 29 nM and the “Slope of average tumor volume (percentage of the volume at day 4) versus time” value ([3]; days 4, 8, 12 and 16, n = 5 mice) was 5.5. The “Effect on tumor growth (in words)” value ([3]; during treatment, days 4 to 16) was “clear reduction in tumor growth with respect to controls, but not tumor regression”.

Reference: paper PMC4667195, “Tumor-selective peptide-carrier delivery of Paclitaxel increases in vivo activity of the drug” (Scientific Reports, 2015)
